Paper PMC11395232, “Aquaporin-3a Dysfunction Impairs Osmoadaptation in Post-Activated Marine Fish Spermatozoa” (International Journal of Molecular Sciences, 2024)

Key:
human AQP3 (HsAQP3) = target: T1, human AQP3 (HsAQP3) (Homo sapiens, UniProt Q92482); experiment: oocyte swelling assay, osmotic water permeability (Pf); type: cell-based
T1 construct: cDNA heterologously expressed in Xenopus laevis oocytes (10 ng cRNA)
T1 sequence (Q92482 1-292): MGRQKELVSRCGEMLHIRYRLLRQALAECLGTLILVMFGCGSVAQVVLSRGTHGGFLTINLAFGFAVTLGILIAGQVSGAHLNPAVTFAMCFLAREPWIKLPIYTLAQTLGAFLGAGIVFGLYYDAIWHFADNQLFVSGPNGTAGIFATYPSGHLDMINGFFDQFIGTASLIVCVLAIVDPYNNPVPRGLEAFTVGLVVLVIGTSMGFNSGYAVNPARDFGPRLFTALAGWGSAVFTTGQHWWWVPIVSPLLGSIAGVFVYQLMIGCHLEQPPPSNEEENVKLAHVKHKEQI

Aqp3a (SaAqp3a) = target: T2, Aqp3a (SaAqp3a) (Sparus aurata, UniProt A0A671Y259); experiment: as above; type: cell-based
T2 construct: cDNA heterologously expressed in Xenopus laevis oocytes (10 ng cRNA); calculated monomer mass 33 kDa
T2 sequence (A0A671Y259 1-302): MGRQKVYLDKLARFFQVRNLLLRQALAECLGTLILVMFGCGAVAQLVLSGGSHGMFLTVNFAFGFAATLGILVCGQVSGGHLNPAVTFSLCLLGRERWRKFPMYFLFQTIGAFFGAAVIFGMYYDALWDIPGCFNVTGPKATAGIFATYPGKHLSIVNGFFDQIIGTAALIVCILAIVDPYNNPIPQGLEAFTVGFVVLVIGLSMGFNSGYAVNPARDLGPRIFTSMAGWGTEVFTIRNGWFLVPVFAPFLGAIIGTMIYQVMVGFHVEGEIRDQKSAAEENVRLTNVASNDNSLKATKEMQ

inhibition at 10 µM (human AQP3 (HsAQP3)): 66 ± 4%
inhibition at 10 µM (Aqp3a (SaAqp3a)): 76 ± 4%
Structure (SMILES): O=C(Nc1csc([N+](=O)[O-])c1)Nc1c(Cl)cccc1Cl [DFP00173]
